Results published in paper PMC12867150, “A fungi-derived cyclic peptide enhances Th9-mediated antitumor immunity by targeting ZAP70 and SREBP1” (The Journal of Clinical Investigation, 2025).
Several values for one entry are separate records, joined by “and”; a condition that tells them apart may be missing. Equal entries are not always repeated.

Columns and labels:
endogenous CD8+ T cells = assay: Cytokines and granzyme B/perforin in endogenous CD8+ T cells (Figure 3H, S4D-F); assay type: in vivo, mouse; set-up: TNF-α expression / IFN-γ expression / Expression of IFN-g of endogenous CD8⁺ T cells in tumor / Expression of TNF-α of endogenous CD8⁺ T cells in tumor: unit not given here; conditions: for Expression of IFN-g of endogenous CD8⁺ T cells in tumor: Supplemental Figure 4D; for Expression of TNF-α of endogenous CD8⁺ T cells in tumor: Supplemental Figure 4E; for Expression of GzmB+Perforin+ of endogenous CD8⁺ T cells in tumor: Supplemental Figure 4F
Protocol: C57BL/6 mice were subcutaneously injected with 5 × 10^5 B16-OVA melanoma cells. Five days after tumor implantation, mice received an intravenous infusion of 2 × 10^6 in vitro–differentiated Th9 cells (cultured for 5 days), which were derived from OT-II CD45.1 donor mice, accompanied by 4 × 10^5 OVA peptide–pulsed DCs via the tail vein. To enhance T cell engraftment and facilitate lymphodepletion, a single intraperitoneal injection of cyclophosphamide (200 mg/kg, Sigma, catalog C0768) was administered 1 day prior to T cell transfer. Mice were euthanized at designated time points for the collection and analysis of spleens, tumor-draining lymph nodes, and tumor tissues.
Details regarding staining panels (human and mouse), reagents (including clones and catalog numbers), acquisition settings, compensation/controls, and analysis procedures are provided in Supplemental Methods.
BioLegend, Cat. No. 422301 or Mouse TruStain FcX™, BioLegend, Cat. No. 101319) for 10 minutes at 4°C. For surface marker detection, cells were stained with fluorochrome-conjugated monoclonal antibodies in 96-well V-bottom plates and incubated on ice for 30 minutes. After staining, cells were washed twice and resuspended in FACS buffer for analysis.
Prior to intracellular cytokine staining, cells were restimulated for 4 hours with PMA (Absin, Cat. No. abs9107), ionomycin (Sigma-Aldrich, Cat. No. I0634), and brefeldin A (MedChemExpress, Cat. No. HY-16592). For intracellular cytokine staining, cells were first surface-stained as described above, then fixed and permeabilized using the BD Cytofix/Cytoperm™ kit (BD Biosciences, Cat. No. 554714) according to the manufacturer ’s protocol. Intracellular proteins were stained with directly conjugated antibodies targeting IL-9, IL-17a, IL-4, IFN-γ, TNF-α, FOXP3, p-ZAP70, Perforin, and […]
Antibodies used for mouse samples included those against IL-9 (PE, clone RM9A4, Biolegend, Cat. No. 514104), IFN-γ (PE, clone XMG1.2, Biolegend, Cat. No.
Cat. No. 103138), CD4 (APC/Cy7, clone E-AB-F1353UJ, Elabscience, Cat. No.
AF18028), CD8α (PerCP/Cy5.5, clone E-AB-F1104UJ, Elabscience, Cat. No. […]
clone E-AB-F1187UH, Elabscience, Cat. No. AF19854), TNF-α (BV421, clone MP6-XT22, Biolegend, Cat. No. 506328), FOXP3 (PE, clone FJK-16s, eBioscience, Cat. No.
Perforin (APC, clone S16009A, Biolegend, Cat. No. 154303) and Granzyme B (APC, clone QA16A02, Biolegend, Cat. No. 372203). For human samples, antibodies against CD4 (PerCP/Cy5.5, clone RPA-T4, Biolegend, Cat. No. 300530; APC/Cy7, clone OKT4, Biolegend, Cat. No. 317418), CD19 (APC/Cy7, clone SJ25C1, Biolegend, Cat.
No. 363009), IFN-γ (PE, clone 4S.B3, Biolegend, Cat. No. 502509), IL-9 (PE, clone

Th17 cells = assay: Th17 polarization, IL-17 by flow cytometry (Figure 1H); assay type: cell-based, mouse
Protocol: Naive CD4^+ T cells were isolated from the spleens of C57BL/6J or CD45.1^+ OT-II mice using the MojoSort Mouse CD4 Naive T Cell Isolation Kit (BioLegend, catalog 480040), following the manufacturer’s protocol. Purified cells were cultured in RPMI-1640 medium supplemented with 10% FBS, 1% penicillin-streptomycin, and 0.1% β-mercaptoethanol (Gibco, catalog 21985023).
T cell polarization was initiated under plate-bound anti-CD3 (2 μg/mL, clone 17A2, BioXCell, catalog BE0002) and soluble anti-CD28 (1 μg/mL, clone 37.51, BioXCell, catalog BE0015-1) stimulation, with the addition of cytokines and neutralizing antibodies specific to each subset. For Th9 cells, these included IL-4 (10 ng/mL, Peprotech, catalog 400-04), TGF-β (1 ng/mL, EPOTO Biotech, catalog HF-2021), anti–IL-12 (5 μg/mL, clone C17.8, BioXCell, catalog BE0051), and anti–IFN-γ (10 μg/mL, clone XMG1.2, BioXCell, catalog BE0055); for Th1 cells, these included IL-12 (10 ng/mL, GenScript, catalog Z03211-50) and anti–IL-4 (5 μg/mL, clone 11B11, BioXCell, catalog BE0045); for Th2 cells, these included IL-4 (50 ng/mL), anti–IFN-γ (20 μg /mL), anti–IL-12 (5 μg/mL), Th17 cells: IL-6 (20 ng/mL, EPOTO Biotech, catalog MF-1006), TGF-β (1 ng/mL), IL-1β (10 ng/mL, Peprotech, catalog AF-211-11B), anti–IFN-γ (10 μg/mL), anti–IL-12 (5 μg/mL), and anti–IL-4 (5 μg/mL); and for Tregs, these included TGF-β (3 ng/mL). […]

[1] = endogenous CD8+, spleen, individual mice, n = 4

**Q.** Which results are given for anteiso-C15 Leu7 surfactin [EpA]?
**A.** GzmB+ PRF1+ gate number (endogenous CD8+ T cells; CD8+ T cells in tumors, representative flow plot, Figure S4F): 30.0; GzmB and Perforin expression (endogenous CD8+ T cells; [1]): 76.8 and 76 and 70.2 and 67.3; IFN-γ expression (endogenous CD8+ T cells; [1]): 11.6 and 15.2 and 19.5 and 6.9; TNF-α expression (endogenous CD8+ T cells; [1]): 6.15 and 4.55 and 6.06 and 5; TNF-α expression of CD8+ T cells (endogenous CD8+ T cells; spleen, result in words): remained unchanged; granzyme B+ perforin+ CD8+ T cells (endogenous CD8+ T cells; spleen, result in words): pronounced increase; Expression of IFN-g of endogenous CD8⁺ T cells in tumor (endogenous CD8+ T cells; replicate 1): 2162; Expression of IFN-g of endogenous CD8⁺ T cells in tumor (endogenous CD8+ T cells; replicate 2): 2256; Expression of IFN-g of endogenous CD8⁺ T cells in tumor (endogenous CD8+ T cells; replicate 3): 2381; Expression of IFN-g of endogenous CD8⁺ T cells in tumor (endogenous CD8+ T cells; replicate 4): 2246; Expression of TNF-α of endogenous CD8⁺ T cells in tumor (endogenous CD8+ T cells; replicate 1): 989; Expression of TNF-α of endogenous CD8⁺ T cells in tumor (endogenous CD8+ T cells; replicate 2): 542; Expression of TNF-α of endogenous CD8⁺ T cells in tumor (endogenous CD8+ T cells; replicate 3): 1324; Expression of TNF-α of endogenous CD8⁺ T cells in tumor (endogenous CD8+ T cells; replicate 4): 780; Expression of GzmB+Perforin+ of endogenous CD8⁺ T cells in tumor (endogenous CD8+ T cells; replicate 1): 28.2; Expression of GzmB+Perforin+ of endogenous CD8⁺ T cells in tumor (endogenous CD8+ T cells; replicate 2): 30; Expression of GzmB+Perforin+ of endogenous CD8⁺ T cells in tumor (endogenous CD8+ T cells; replicate 3): 29.9; Expression of GzmB+Perforin+ of endogenous CD8⁺ T cells in tumor (endogenous CD8+ T cells; replicate 4): 58.8; TNF-α expression of CD8+ T cells (endogenous CD8+ T cells; tumors, result in words): upregulated TNF-α expression; IL-17 expression under Th17 polarization (Th17 cells; EpA 10 μM, individual replicates, n = 4): 31.3 and 30.4 and 30.7 and 33.1; effect on Th17 polarization (Th17 cells; result in words): did not affect
